Laboratory results from ChEMBL document CHEMBL1649094, “First Selective CYP11B1 Inhibitors for the Treatment of Cortisol-Dependent Diseases” (ACS Med Chem Lett, 2011).

Legend:
[1] = biological target: T1, Cytochrome P450 11B1, mitochondrial (Homo sapiens, UniProt P15538); assay: Inhibition of human CYP11B1 expressed in hamster V79MZ cells using 11-deoxycorticosterone substrate; type: cell-based
T1 sequence (P15538 whole entry): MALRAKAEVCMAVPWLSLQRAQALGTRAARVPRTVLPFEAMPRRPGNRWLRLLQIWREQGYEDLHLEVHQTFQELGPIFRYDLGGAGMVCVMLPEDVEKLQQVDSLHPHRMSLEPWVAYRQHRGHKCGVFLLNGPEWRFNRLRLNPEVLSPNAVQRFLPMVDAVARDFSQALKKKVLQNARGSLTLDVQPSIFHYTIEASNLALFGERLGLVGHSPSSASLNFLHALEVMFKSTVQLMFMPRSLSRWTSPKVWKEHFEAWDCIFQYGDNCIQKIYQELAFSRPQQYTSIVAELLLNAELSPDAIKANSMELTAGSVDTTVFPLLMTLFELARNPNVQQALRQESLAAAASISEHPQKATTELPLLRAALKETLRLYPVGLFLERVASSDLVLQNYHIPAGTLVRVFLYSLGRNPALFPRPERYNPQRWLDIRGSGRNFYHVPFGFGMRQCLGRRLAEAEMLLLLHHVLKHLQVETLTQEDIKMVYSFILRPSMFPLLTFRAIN

[2] = biological target: T2, Cytochrome P450 11B2, mitochondrial (Homo sapiens, UniProt P19099); assay: Inhibition of human CYP11B2 expressed in hamster V79MZ cells using 11-deoxycorticosterone substrate; type: cell-based
T2 sequence (P19099 whole entry): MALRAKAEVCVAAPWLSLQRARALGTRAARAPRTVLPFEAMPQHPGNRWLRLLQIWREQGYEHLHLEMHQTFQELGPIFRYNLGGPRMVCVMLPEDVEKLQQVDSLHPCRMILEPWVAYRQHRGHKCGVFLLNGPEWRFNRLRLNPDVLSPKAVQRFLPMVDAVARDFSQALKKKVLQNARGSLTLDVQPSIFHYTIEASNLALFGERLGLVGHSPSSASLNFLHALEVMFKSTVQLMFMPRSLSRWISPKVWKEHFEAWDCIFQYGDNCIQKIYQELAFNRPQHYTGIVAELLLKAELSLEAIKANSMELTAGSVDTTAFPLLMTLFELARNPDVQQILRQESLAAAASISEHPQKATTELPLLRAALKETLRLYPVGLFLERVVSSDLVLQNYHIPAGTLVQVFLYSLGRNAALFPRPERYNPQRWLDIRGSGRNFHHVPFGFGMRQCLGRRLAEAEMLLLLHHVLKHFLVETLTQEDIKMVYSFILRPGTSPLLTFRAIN

Homo sapiens = organism: Homo sapiens; assay: Selectivity index, ratio of IC50 for human CYP11B2 to IC50 for human CYP11B1
CYP17 = biological target: T3, CYP17 (Homo sapiens, UniProt P05093); assay: Inhibition of human recombinant CYP17 expressed in Escherichia coli at 2 uM using progesterone substrate; conditions: recombinant human CYP17 expressed in Escherichia coli, probe progesterone
T3 sequence (P05093 whole entry): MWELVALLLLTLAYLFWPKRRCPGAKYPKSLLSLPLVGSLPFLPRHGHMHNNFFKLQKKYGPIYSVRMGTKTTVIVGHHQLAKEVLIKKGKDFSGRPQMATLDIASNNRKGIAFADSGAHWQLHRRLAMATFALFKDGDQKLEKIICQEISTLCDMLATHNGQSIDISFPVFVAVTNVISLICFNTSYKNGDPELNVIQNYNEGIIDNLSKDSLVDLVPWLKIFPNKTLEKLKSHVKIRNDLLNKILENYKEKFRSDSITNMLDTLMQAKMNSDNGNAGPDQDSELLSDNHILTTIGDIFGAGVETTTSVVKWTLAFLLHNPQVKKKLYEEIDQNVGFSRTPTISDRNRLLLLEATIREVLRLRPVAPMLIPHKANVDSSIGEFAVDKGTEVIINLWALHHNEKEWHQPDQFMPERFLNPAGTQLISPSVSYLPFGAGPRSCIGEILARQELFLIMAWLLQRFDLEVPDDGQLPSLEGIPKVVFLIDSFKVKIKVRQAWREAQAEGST

CYP19 (aromatase) = biological target: T4, CYP19 (aromatase) (Homo sapiens, UniProt P11511); assay: Inhibition of human placental microsomes CYP19 at 500 nM using androstenedione substrate; conditions: human placental microsomes, probe androstenedione
T4 sequence (P11511 whole entry): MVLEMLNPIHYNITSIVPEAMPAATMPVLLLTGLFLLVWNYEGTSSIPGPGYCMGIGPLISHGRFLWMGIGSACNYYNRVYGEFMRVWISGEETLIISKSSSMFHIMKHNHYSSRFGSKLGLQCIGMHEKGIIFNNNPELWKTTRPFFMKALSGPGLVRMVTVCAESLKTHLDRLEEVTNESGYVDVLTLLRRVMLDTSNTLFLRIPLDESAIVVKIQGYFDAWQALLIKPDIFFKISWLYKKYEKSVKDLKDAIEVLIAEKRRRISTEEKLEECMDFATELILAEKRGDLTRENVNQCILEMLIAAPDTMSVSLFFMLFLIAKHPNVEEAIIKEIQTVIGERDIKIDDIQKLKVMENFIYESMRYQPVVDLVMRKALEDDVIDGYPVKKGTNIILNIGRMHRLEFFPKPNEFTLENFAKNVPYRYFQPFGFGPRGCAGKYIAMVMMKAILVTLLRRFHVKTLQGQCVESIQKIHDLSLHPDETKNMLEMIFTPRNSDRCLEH

Compound | IC50 [1] | IC50 [2] | Ratio IC50 (Homo sapiens) | inhibition at 2 µM (CYP17) | inhibition at 0.5 µM (CYP19 (aromatase))
c1ccc(-c2ccc(Cn3ccnc3)cc2)cc1 | 32 nM | 637 nM | 20 | 40% | 5%
c1ccc(-c2ccc(Cn3ccnc3)s2)cc1 | 43 nM | 353 nM | 8.2 | 21% | 12%
